Measured values reported in US12410160B2 (Gilead Sciences, Inc., priority 2021, dated 2025).
Where two headings read alike, the source gives them in different places.

What was measured:
human KHK-C = human KHK-C (Homo sapiens (Human), UniProt P50053); test: KHK Biochemical Assay (IC50), ADP-Glo, KHK-C; conditions: average of at least two separate assays
Summary of the method: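 Luminescent ADP-Glo read-out of ADP made by His-tagged KHK (BL21 (DE3) expression, Ni-NTA). Enzyme and compound sat together 30 min before ATP/fructose addition, then reacted 4 h at RT in Hepes pH 7.4 buffer with KCl, MgCl2, Triton-X. Quench 1 h, detection 1 h.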

HepG2 cells = test: F1P Cell-Based Assay (EC50), 13C6-fructose-1-phosphate in HepG2 cells (cell culture medium or 50% human plasma)
[1] = Homo sapiens, HepG2, HepG2 cells, 50% human plasma, read-out: F1P 50% HP EC50
[2] = Homo sapiens, HepG2, read-out: F1P 10% FBS EC50, HepG2 cells, cell culture medium (10% FBS)
[3] = HepG2 cells, 50% human plasma, read-out: F1P 50% HP EC50
[4] = read-out: F1P 10% FBS EC50, HepG2 cells, cell culture medium (10% FBS)

Sequence of human KHK-C (P50053 whole entry): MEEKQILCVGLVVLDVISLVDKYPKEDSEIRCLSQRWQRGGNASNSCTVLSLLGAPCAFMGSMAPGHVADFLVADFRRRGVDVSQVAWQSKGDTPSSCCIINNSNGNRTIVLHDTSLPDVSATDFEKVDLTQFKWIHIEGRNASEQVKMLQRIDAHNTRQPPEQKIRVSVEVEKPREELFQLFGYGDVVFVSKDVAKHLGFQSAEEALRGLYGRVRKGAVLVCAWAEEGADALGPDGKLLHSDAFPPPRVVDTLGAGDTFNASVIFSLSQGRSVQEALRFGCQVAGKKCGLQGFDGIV

| Structure (SMILES) | IC50 (human KHK-C; ADP-Glo) [nM] | EC50 (HepG2 cells; [1]) [nM] | EC50 (HepG2 cells; [2]) [nM] | IC50 (human KHK-C) [nM] | EC50 (HepG2 cells; [3]) [nM] | EC50 (HepG2 cells; [4]) [nM] |
| --- | --- | --- | --- | --- | --- | --- |
| C[C@H]1[C@H](O)CN1c1nc(-c2ccc3c(c2)C(F)(F)CNC3)c2c(n1)C(F)(F)CC2 [Example 807, (2S,3R)-1-[4-(4,4-difluoro-2,3-dihydro-1H-isoquinolin-6-yl)-7,7-difluoro-5,6-dihydrocyclopenta[d]pyrimidin-2-yl]-2-methyl-azetidin-3-ol] | 15.7 | 99.4 | 35.2 |  |  |  |
| CC1(C)CC(NS(C)(=O)=O)c2ccc(-c3nc(N4CC[C@@H]4CF)nc4c3CCC4(F)F)cc21 (stereo partly drawn) [Example 629, N-(5-(7,7-difluoro-2-((R)-2-(fluoromethyl)azetidin-1-yl)-6,7-dihydro-5H-cyclopenta[d]pyrimidin-4-yl)-3,3-dimethyl-2,3-dihydro-1H-inden-1-yl)methanesulfonamide] |  | > 500 | 107 | 4.1 |  |  |
| CS(=O)(=O)CC(N)c1ccc(-c2nc(N3CC[C@@H]3CF)nc3c2CCC3(F)F)cc1 (stereo partly drawn) [Example 780, 1-(4-(7,7-difluoro-2-((R)-2-(fluoromethyl)azetidin-1-yl)-6,7-dihydro-5H-cyclopenta[d]pyrimidin-4-yl)phenyl)-2-(methylsulfonyl)ethan-1-amine] |  | 35 | 22.8 | 4.8 |  |  |
| CC(=O)NC1COc2cc(-c3nc(N4C[C@@H](O)[C@@H]4C)nc4c3CCC4(F)F)cc(F)c21 (some centres unmarked) [Example 809] | 24.8 | 179 | 110 |  |  |  |
| C[C@H]1[C@H](O)CN1c1nc(-c2ccc3c(c2)S(=O)(=O)C[C@@H]3N)c2c(n1)C(F)(F)CC2 (single isomer, unassigned) [Example 662] |  | 17.2 | 22.6 | 3.1 |  |  |
| C[C@H]1CCN1c1nc2c(c(-c3ccc(Cl)c(S(N)(=O)=O)c3)n1)CCC2 [Example 522, (S)-2-chloro-5-(2-(2-methylazetidin-1-yl)-6,7-dihydro-5H-cyclopenta[d]pyrimidin-4-yl)benzenesulfonamide] |  | 454 | 53.3 | 44.5 |  |  |
| C[C@H]1[C@H](O)CN1c1nc([C@H]2CC(NS(C)(=O)=O)c3ccccc3O2)c2c(n1)C(F)(F)CC2 (stereo partly drawn) [Example 786, N—((R)-(7,7-difluoro-2-((2S,3R)-3-hydroxy-2-methylazetidin-1-yl)-6,7-dihydro-5H-cyclopenta[d]pyrimidin-4-yl)chroman-4-yl)methanesulfonamide] |  |  |  | 6.1 | 97.6 | 58 |
| C[C@H]1[C@H](O)CN1c1nc(-c2ccc3c(c2)C(C)(C)C[C@H]3NS(C)(=O)=O)c2c(n1)C(F)(F)CC2 (single isomer, unassigned) [Example 631] |  | > 500 | 78.9 | 10.7 |  |  |
| C[C@H]1[C@H](F)CN1c1nc(-c2ccc(C3(N)CS(=O)(=O)C3)cc2)c2c(n1)C(F)(F)CC2 [Example 772] |  | 33.8 | 10.5 | 1 |  |  |
| C[C@H]1[C@@H](F)CN1c1nc(-c2ccc(C3(N)CS(=O)(=O)C3)cc2)c2c(n1)C(F)(F)CC2 [Example 785] |  | 23.7 | 15.2 | 0.7 |  |  |
| C[C@H]1[C@H](O)CN1c1nc(-c2ccc3c(c2)OCCNC32COC2)c2c(n1)C(F)(F)CC2 [Example 521, (2S,3R)-1-(4-(3,4-dihydro-2H-spiro[benzo[f][1,4]oxazepine-5,3′-oxetan]-8-yl)-7,7-difluoro-6,7-dihydro-5H-cyclopenta[d]pyrimidin-2-yl)-2-methylazetidin-3-ol] |  | > 100 | 68.4 | 9.8 |  |  |
| C[C@H]1[C@H](O)CN1c1nc(-c2ccc([C@@]3(N)CCOC3)cc2)c2c(n1)C(F)(F)CC2 (single isomer, unassigned) [Example 517] |  | 6.3 | 4.8 | 1 |  |  |
| NC1(c2ccc(-c3nc(N4CC(F)(F)[C@@H]4CO)nc4c3CCC4(F)F)cc2)CS(=O)(=O)C1 (single isomer, unassigned) [Example 784] |  | 91.9 | 119 | 7.9 |  |  |
| C[C@H]1[C@H](O)CN1c1nc(-c2ccc3c(c2)CCC3(C)NS(C)(=O)=O)c2c(n1)C(F)(F)CC2 (stereo partly drawn) [Example 810, N-[5-[7,7-difluoro-2-[(2S,3R)-3-hydroxy-2-methyl-azetidin-1-yl]-5,6-dihydrocyclopenta[d]pyrimidin-4-yl]-1-methyl-indan-1-yl]methanesulfonamide] | 34.9 | > 500 | 206 |  |  |  |
| C[C@H]1[C@H](O)CN1c1nc(-c2ccc3c(c2)CC[C@H]3NS(C)(=O)=O)c2c(n1)C(F)(F)CC2 [Example 473, N—((R)-5-(7,7-difluoro-2-((2S,3R)-3-hydroxy-2-methylazetidin-1-yl)-6,7-dihydro-5H-cyclopenta[d]pyrimidin-4-yl)-2,3-dihydro-1H-inden-1-yl)methanesulfonamide] |  | 111 | 63.5 | 7.5 |  |  |
| C[C@H]1CCN1c1nc(-c2cc3c(c(CNS(C)(=O)=O)c2)OCC3)c2c(n1)C(F)(F)CC2 [Example 762, N-[[5-[7,7-difluoro-2-[(2S)-2-methylazetidin-1-yl]-5,6-dihydrocyclopenta[d]pyrimidin-4-yl]-2,3-dihydrobenzofuran-7-yl]methyl]methanesulfonamide] |  | 159 | 11.4 | 2 |  |  |
| C[C@H]1[C@H](O)CN1c1nc(-c2ccc3c(c2)OC[C@@H]3NS(=O)(=O)CC#N)c2c(n1)C(F)(F)CC2 [Example 627, 1-cyano-N-((R)-6-(7,7-difluoro-2-((2S,3R)-3-hydroxy-2-methylazetidin-1-yl)-6,7-dihydro-5H-cyclopenta[d]pyrimidin-4-yl)-2,3-dihydrobenzofuran-3-yl)methanesulfonamide] |  | 4.1 | 4.5 | 6 |  |  |
| C[C@H]1[C@H](O)CN1c1nc(-c2ccc3c(c2)OC[C@@H]3NS(=O)(=O)C2CC2)c2c(n1)C(F)(F)CC2 [Example 625] |  | 72.2 | 17.6 | 1.5 |  |  |
| C[C@H]1[C@H](O)CN1c1nc(-c2cc(F)c3c(c2)OCC3NS(C)(=O)=O)c2c(n1)C(F)(F)CC2 (stereo partly drawn) [Example 817, N-(6-(7,7-difluoro-2-((2S,3R)-3-hydroxy-2-methylazetidin-1-yl)-6,7-dihydro-5H-cyclopenta[d]pyrimidin-4-yl)-4-fluoro-2,3-dihydrobenzofuran-3-yl)methanesulfonamide] | 5.9 | 67.1 | 39.7 |  |  |  |
| C[C@H]1CCN1c1nc(-c2ccc(C(N)CS(C)(=O)=O)cc2)c2c(n1)C(F)(F)CC2 (stereo partly drawn) [Example 774, 1-(4-(7,7-difluoro-2-((S)-2-methylazetidin-1-yl)-6,7-dihydro-5H-cyclopenta[d]pyrimidin-4-yl)phenyl)-2-(methylsulfonyl)ethan-1-amine] |  |  | 11.8 | 2.1 |  |  |
| C[C@H]1[C@H](O)CN1c1nc(-c2ccc3c(c2)O[C@H](CF)CNC3=O)c2c(n1)C(F)(F)CC2 (single isomer, unassigned) [Example 596] |  | 13.6 | 12.2 | 2 |  |  |
| NC1(c2ccc(-c3nc(N4CC(F)(F)C4CO)nc4c3CCC4(F)F)cc2)CS(=O)(=O)C1 (centres unmarked) [Example 782, 3-amino-3-(4-(2-(3,3-difluoro-2-(hydroxymethyl)azetidin-1-yl)-7,7-difluoro-6,7-dihydro-5H-cyclopenta[d]pyrimidin-4-yl)phenyl)thietane 1,1-dioxide] |  | 130 | 135 | 6.3 |  |  |
| CCC1CNC(=O)c2ccc(-c3nc(N4C[C@@H](O)[C@@H]4C)nc4c3CCC4(F)F)cc2O1 (stereo partly drawn) [Example 591, 8-(7,7-difluoro-2-((2S,3R)-3-hydroxy-2-methylazetidin-1-yl)-6,7-dihydro-5H-cyclopenta[d]pyrimidin-4-yl)-2-ethyl-3,4-dihydrobenzo[f][1,4]oxazepin-5(2H)-one] |  | 36 | 13.5 | 5.5 |  |  |
| CC(=O)NCc1cc(-c2nc(N3C[C@@H](O)[C@@H]3C)nc3c2CCC3(F)F)cc2c1OCC2 [Example 766, N-[[5-[7,7-difluoro-2-[(2S,3R)-3-hydroxy-2-methyl-azetidin-1-yl]-5,6-dihydrocyclopenta[d]pyrimidin-4-yl]-2,3-dihydrobenzofuran-7-yl]methyl]acetamide] |  |  |  | 11.8 | 150 | 38.4 |
| CNC1(c2ccc(-c3nc(N4C[C@@H](F)[C@@H]4C)nc4c3CCC4(F)F)cc2)CS(=O)(=O)C1 [Example 770, 3-(4-(7,7-difluoro-2-((2S,3R)-3-fluoro-2-methylazetidin-1-yl)-6,7-dihydro-5H-cyclopenta[d]pyrimidin-4-yl)phenyl)-3-(methylamino)thietane 1,1-dioxide] |  | 156 | 44.3 | 5.7 |  |  |
| C[C@H]1[C@H](O)CN1c1nc(-c2ccc3c(c2)CCCCC3NS(C)(=O)=O)c2c(n1)C(F)(F)CC2 (stereo partly drawn) [Example 547, N-(2-(7,7-difluoro-2-((2S,3R)-3-hydroxy-2-methylazetidin-1-yl)-6,7-dihydro-5H-cyclopenta[d]pyrimidin-4-yl)-6,7,8,9-tetrahydro-5H-benzo[7]annulen-5-yl)methanesulfonamide] |  | > 500 | 314 | 33.6 |  |  |
| COc1cc(-c2nc(N3C[C@@H](O)[C@@H]3C)nc3c2CCC3(F)F)cc2c1C(NS(C)(=O)=O)CO2 (stereo partly drawn) [Example 477, N-(6-(7,7-difluoro-2-((2S,3R)-3-hydroxy-2-methylazetidin-1-yl)-6,7-dihydro-5H-cyclopenta[d]pyrimidin-4-yl)-4-methoxy-2,3-dihydrobenzofuran-3-yl)methanesulfonamide] |  | 25.9 | 6 | 0.4 |  |  |
